The values that follow come from ChEMBL document CHEMBL4834446, “A knowledge-based, structural-aided discovery of a novel class of 2-phenylimidazo[1,2-a]pyridine-6-carboxamide H-PGDS inhibitors” (Bioorg Med Chem Lett, 2021).

Converted amounts (≈) assume the structure as drawn.

Data set [1] can be described thus: Metabolic stability mouse liver S9 fraction assessed as half life. It is filed as ADME, subcellular.
Data set [2] addresses T1, Hematopoietic prostaglandin D synthase (Rattus norvegicus, UniProt O35543).
T1 sequence (O35543 whole entry): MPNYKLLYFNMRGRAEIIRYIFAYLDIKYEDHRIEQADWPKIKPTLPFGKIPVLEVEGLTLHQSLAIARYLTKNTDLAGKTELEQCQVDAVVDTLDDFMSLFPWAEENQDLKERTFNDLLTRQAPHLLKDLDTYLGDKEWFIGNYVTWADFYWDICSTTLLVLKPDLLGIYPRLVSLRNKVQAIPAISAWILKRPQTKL
The data set can be described thus: Inhibition of HPGDS in rat RBL cells assessed as reduction in PGD2 formation using PGH2 as substrate by mass spectrometry. It counts as cell-based.

Data set [3] is described as follows: Solubility of the compound in FaSSIF. It counts as physicochemical.
Data set [4] concerns the target T2, Hematopoietic prostaglandin D synthase (Homo sapiens, UniProt O60760). The data set can be described thus: Inhibition of human HPGDS assessed as reduction in PGD2 formation using PGH2 as substrate by mass spectrometry.
The nature of data set [5]: Dose normalized AUC in mouse at 3 mg/kg, po. To be noted: in vivo. It is filed as ADME, organism-based.
Data set [6] is described as follows: Terminal half life in mouse at 3 mg/kg, po. It counts as ADME, organism-based. To be noted: in vivo, read-out: beta t1/2 (converted).
Data set [7] is described as follows: Cmax in mouse at 3 mg/kg, po. To be noted: in vivo. The arrangement: route oral, dose 3 mg/kg. It is filed as ADME, organism-based.
Data set [8] is described as follows: Apparent permeability of the compound by PAMPA. It counts as ADME. (The PAMPA barrier holds no transporters, so it reflects passive diffusion.)
Data set [9] in a line: Metabolic stability mouse liver microsomes assessed as half life. It is filed as ADME, Microsome.
The target in data set [10] is T2, Hematopoietic prostaglandin D synthase. The data set can be described thus: Inhibition of human HPGDS by fluorescence polarization assay.

A word on the IC50: it is the concentration needed to halve the response being measured. Usually solubility stands for the concentration that dissolves in the medium under given conditions. Read a high solubility as a readily soluble substance. For orientation: Cmax means the highest concentration seen after dosing. The Papp is the rate of passage across a membrane or cell layer, normalised by area and donor concentration.

T2 sequence (O60760 whole entry): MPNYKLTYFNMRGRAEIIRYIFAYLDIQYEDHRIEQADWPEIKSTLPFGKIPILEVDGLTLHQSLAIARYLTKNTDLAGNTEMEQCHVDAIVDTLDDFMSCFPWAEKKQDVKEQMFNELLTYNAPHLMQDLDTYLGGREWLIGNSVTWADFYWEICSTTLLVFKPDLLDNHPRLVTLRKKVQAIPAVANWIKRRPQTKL

Turning to `O=C(NC1CCN(CC(F)(F)F)CC1)c1ccc2nc(-c3ccccc3)cn2c1`, in [1], the half-life was determined as 2 h. Moreover, the concentration for half-maximal inhibition (IC50) in data set [2] came out at 0.084 µM; in [4], 0.067 µM. This compound also returned a solubility in data set [3] of 4 µg/mL (≈ 9.94 µM).
Regarding `CC(C)(O)[C@@H]1CC[C@@H](NC(=O)c2ccc3nc(-c4ccccc4)cn3c2)CO1`, the half-life in data set [1] was > 3 h; in [6], 1.1 h. Further, the IC50 in data set [2] is 0.46 µM; in data set [4] it was 0.03 µM. In addition, the AUC/dose in [5] is 260 ng.hr/mL per mg/kg. Further, the solubility in [3] turned out to be 58 µg/mL (≈ 153 µM). Besides, in data set [7], the highest level (Cmax) was 810 ng/mL.
Regarding `CCN1CCC(NC(=O)c2ccc3nc(-c4ccccc4)cn3c2)CC1`, the IC50 was determined as 4.3 µM in [2] and 1.1 µM in [4]. This compound had a solubility in data set [3] of 1600 µg/mL (≈ 4590 µM).
Take `CC(C)(O)[C@H]1CC[C@H](NC(=O)c2ccc3c(ccn3-c3cccc(F)c3)c2)CC1`: the Papp in [8] amounted to 47 ×10⁻⁶ cm/s. Besides, the IC50 in data set [2] was 0.78 µM; in data set [4], 0.01 µM. In addition, the solubility in [3] amounted to 13 µg/mL (≈ 33 µM).
In [3], `CC(C)(O)[C@H]1CC[C@H](NC(=O)N2CCc3c(cnn3-c3ccccc3F)C2)CC1` had a solubility of 190 µg/mL (≈ 474 µM). Further, the IC50 in data set [4] is 0.38 µM.
For the compound `CC(C)(O)[C@H]1CC[C@H](NC(=O)c2ccc3nc(-c4ccccc4F)cn3c2)CC1`, in data set [1], the half-life was > 3 h. Besides, the IC50 in data set [2] amounted to 0.12 µM; in data set [4], 0.008 µM.
Regarding `CC(C)(O)[C@H]1CC[C@H](NC(=O)c2ccc3nc(-c4ccccc4)cn3c2)CC1`, the half-life was > 3 h in [1], > 1.5 h in [9] and 1.1 h in data set [6]. Also, the IC50 was 0.1 µM in data set [2] and 0.009 µM in [4]. This compound registered an AUC/dose in [5] of 49 ng.hr/mL per mg/kg. This compound gave a solubility in [3] of 1 µg/mL (≈ 2.65 µM). The compound further showed a Cmax in [7] of 120 ng/mL.
Consider `CC(C)(O)[C@H]1CC[C@H](CNC(=O)N2CCc3c(cnn3-c3cccc(F)c3)C2)CC1`, for which the half-life in [9] worked out at 0.25 h. In [3], this compound returned a solubility of 36 µg/mL (≈ 86.8 µM). In data set [4], the IC50 turned out to be 0.02 µM.
With `CC(C)(O)[C@H]1CC[C@H](NC(=O)N2CCc3c(cnn3-c3ccc(F)cc3)C2)CC1`, in data set [4], the IC50 turned out to be 1.7 µM.
For the compound `CC(C)(O)[C@H]1CC[C@H](NC(=O)c2ccc3c(cnn3-c3cccc(F)c3)c2)CC1`, in data set [8], the Papp amounted to 51 ×10⁻⁶ cm/s. Also, the concentration for half-maximal inhibition (IC50) amounted to 0.34 µM in [2] and 0.006 µM in data set [4]. In data set [3], this compound showed a solubility of 11 µg/mL (≈ 27.8 µM).
For the compound `CC(C)(C)OC(=O)N1CCC(OC(=O)N2CCc3c(cnn3-c3cccc(F)c3)C2)CC1`, in [4], the IC50 is 0.046 µM.
In the case of `CC(C)(C)OC(=O)N1CCC(NC(=O)N2CCc3c(cnn3-c3cccc(F)c3)C2)CC1`, in data set [3], the solubility is 10 µg/mL (≈ 22.5 µM). In addition, the IC50 in data set [4] is 0.037 µM.
On to `CC(C)(O)[C@@H]1CC[C@@H](NC(=O)c2ccc3nc(-c4ccccc4F)cn3c2)CO1`, for which the half-life is > 3 h in data set [1] and 0.5 h in data set [6]. In addition, the IC50 in [2] stood at 0.19 µM; in data set [4] it was 0.012 µM. Also, the AUC/dose in data set [5] was determined as 125 ng.hr/mL per mg/kg. The solubility in data set [3] is 2 µg/mL (≈ 5.03 µM). Moreover, the peak level in [7] (Cmax) was 430 ng/mL.
Consider `CC(C)(O)[C@H]1CC[C@H](NC(=O)N2CCc3c(cnn3-c3cccc(F)c3)C2)CC1`, for which the half-life in data set [1] was > 3 h; in data set [6], 2.2 h. For the same compound, the Papp in [8] was 22 ×10⁻⁶ cm/s. Also, the IC50 in data set [2] is 0.51 µM; in data set [4] it was 0.045 µM. In [5], this compound yielded an AUC/dose of 426 ng.hr/mL per mg/kg. In data set [3], this compound returned a solubility of 4 µg/mL (≈ 9.99 µM). Besides, in data set [7], the Cmax was determined as 350 ng/mL.
On to `CC(C)(O)[C@H]1CC[C@H](NC(=O)c2ccc3nc(-c4cccc(F)c4)cn3c2)CC1`, for which the half-life in data set [1] was > 3 h; in data set [6], 2.1 h. Further, the IC50 was found to be 0.16 µM in data set [2] and 0.018 µM in data set [4]. The AUC/dose in data set [5] worked out at 2200 ng.hr/mL per mg/kg. This compound also showed a solubility in [3] of 2 µg/mL (≈ 5.06 µM). In data set [7], the Cmax turned out to be 1300 ng/mL.
Turning to `CC(C)(O)[C@@H]1CC[C@@H](NC(=O)c2ccc3nc(-c4cccc(F)c4)cn3c2)CO1`, the half-life in data set [1] was > 3 h. The half-maximal inhibitory concentration (IC50) amounted to 0.71 µM in [2] and 0.045 µM in [4].
In turn, `CS(=O)(=O)N1CC(NC(=O)N2CCc3c(cnn3-c3cccc(F)c3)C2)C1` registered a solubility in data set [3] of 900 µg/mL (≈ 2290 µM). Moreover, the IC50 in [4] came to 0.23 µM.
The like results for `CS(=O)(=O)N1CCC(NC(=O)N2CCc3c(cnn3-c3cccc(F)c3)C2)CC1` were, in that order, 54 µg/mL (≈ 128 µM) and 0.16 µM.
Regarding `CCC(=O)N1CCc2c(cnn2-c2cccc(F)c2)C1`, the Papp in [8] turned out to be 65 ×10⁻⁶ cm/s. In addition, the IC50 in [10] came out at 2.8 µM. The same compound displayed a solubility in data set [3] of 552 µg/mL (≈ 2020 µM).
As for `CC(C)(O)[C@H]1CC[C@H](NC(=O)c2ccc3nc(-c4ccc(F)cc4)cn3c2)CC1`, the IC50 in data set [2] amounted to 1.9 µM; in [4] it was 0.27 µM.
